Experimental data from patent publication US20250230193A1, “CYCLIC COMPOUND HAVING SELECTIVE KRAS INHIBITORY EFFECT ON HRAS AND NRAS” (CHUGAI SEIYAKU KABUSHIKI KAISHA, priority 2022, published 2025).

Legend:
[1] = target: GDP-bound HRAS wild-type protein (Homo sapiens, UniProt P01112); experiment: Binding to HRAS by surface plasmon resonance (SPR), Single Cycle Kinetics; settings: KD ratio HRAS/KRAS, class symbols
[2] = target: GDP-bound NRAS wild-type protein (Homo sapiens, UniProt P01111); experiment: Binding to NRAS by surface plasmon resonance (SPR), Single Cycle Kinetics; settings: KD ratio NRAS/KRAS, class symbols
Chain of GDP-bound NRAS wild-type protein (P01111 whole entry): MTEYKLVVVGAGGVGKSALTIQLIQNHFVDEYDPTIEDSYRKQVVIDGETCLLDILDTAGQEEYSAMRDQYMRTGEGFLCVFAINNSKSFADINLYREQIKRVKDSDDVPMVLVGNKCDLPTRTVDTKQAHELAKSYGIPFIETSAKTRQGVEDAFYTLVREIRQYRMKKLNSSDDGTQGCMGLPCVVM

Chain of GDP-bound HRAS wild-type protein (P01112 whole entry): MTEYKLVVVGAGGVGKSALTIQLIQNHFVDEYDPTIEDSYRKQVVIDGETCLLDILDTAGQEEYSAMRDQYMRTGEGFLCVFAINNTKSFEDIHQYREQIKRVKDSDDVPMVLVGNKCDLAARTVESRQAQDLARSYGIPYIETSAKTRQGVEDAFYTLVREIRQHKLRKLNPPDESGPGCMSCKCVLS

Compound	HRAS/KRAS (ratio of KD value with respect to GDP-bound HRAS wild-type protein to KD value with respect to KRAS) [1]	NRAS/KRAS (ratio of KD value with respect to GDP-bound NRAS wild-type protein to KD value with respect to KRAS) [2]
CCCC[C@H]1C(=O)N[C@@H]([C@@H](C)CC)C(=O)N(C)CC(=O)N(C)[C@H]2C/C=C\CCN(C2=O)[C@@H](Cc2ccc(C(F)(F)F)cc2)C(=O)N(C)CC(=O)N[C@@H](CCc2ccc(C(F)(F)F)c(OC)c2)C(=O)N2C[C@H](OCC)C[C@H]2C(=O)NC2(CCC2)C(=O)N(C)[C@@H](C2CCCC2)C(=O)N(C)[C@H](C(=O)N(C)CC)CC(=O)N1C [PP2840]	A (a compound having 10 or more and less than 20 is denoted as A)	A (a compound having 10 or more and less than 20 is denoted as A)
CCCC[C@H]1C(=O)N[C@@H]([C@@H](C)CC)C(=O)N(C)CC(=O)N(C)[C@H]2C/C=C\CCN(C2=O)[C@@H](Cc2ccc(C(F)(F)F)cc2)C(=O)N(C)CC(=O)N[C@@H](CCc2ccc(C(F)(F)F)c(Cl)c2)C(=O)N2C[C@H](OCC)C[C@H]2C(=O)NC2(CCC2)C(=O)N(C)[C@@H](C2CCCC2)C(=O)N(C)[C@H](C(=O)N(C)CC)CC(=O)N1C [PP2841]	A (a compound having 10 or more and less than 20 is denoted as A)	A (a compound having 10 or more and less than 20 is denoted as A)
CCO[C@@H]1C[C@H]2C(=O)NC3(CCC3)C(=O)N(C)[C@@H](C3CCCC3)C(=O)N(C)[C@H](C(=O)N(C)C)CC(=O)N(C)[C@@H](CC3CCCC3)C(=O)N[C@@H]([C@@H](C)CC)C(=O)N(C)CC(=O)N(C)[C@H]3C/C=C\CCN(C3=O)[C@@H](Cc3ccc(C(F)(F)F)cc3)C(=O)N(C)CC(=O)N[C@@H](CCc3ccc(C(F)(F)F)c(Cl)c3)C(=O)N2C1 [PP2842]	B (a compound having 3 or more and less than 10 is denoted as B)	A (a compound having 10 or more and less than 20 is denoted as A)
C#CC[C@H]1C(=O)N[C@@H]([C@@H](C)CC)C(=O)N(C)CC(=O)N(C)[C@H]2C/C=C\CCN(C2=O)[C@@H](Cc2ccc(C(F)(F)F)cc2)C(=O)N(C)CC(=O)N[C@@H](CCc2ccc(Cl)c(Cl)c2)C(=O)N2C[C@H](OCC)C[C@H]2C(=O)NC2(CC(C)(C)C2)C(=O)N(C)[C@@H](C2CCCC2)C(=O)N(C)[C@H](C(=O)N(C)CC)CC(=O)N1C [PP2843]	A (a compound having 10 or more and less than 20 is denoted as A)	A (a compound having 10 or more and less than 20 is denoted as A)
C#CC[C@H]1C(=O)N[C@@H]([C@@H](C)CC)C(=O)N(C)CC(=O)N(C)[C@H]2C/C=C\CCN(C2=O)[C@@H](Cc2ccc(C(F)(F)F)cc2)C(=O)N(C)CC(=O)N[C@@H](CCc2ccc(C(F)(F)F)c(Cl)c2)C(=O)N2C[C@H](OCC)C[C@H]2C(=O)NC2(CC(C)(C)C2)C(=O)N(C)[C@@H](C2CCCC2)C(=O)N(C)[C@H](C(=O)N(C)CC)CC(=O)N1C [PP2844]	A (a compound having 10 or more and less than 20 is denoted as A)	A (a compound having 10 or more and less than 20 is denoted as A)
CCO[C@@H]1C[C@H]2C(=O)NC3(CCC3)C(=O)N(C)[C@@H](C3CCCC3)C(=O)N(C)[C@H](C(=O)N(C)CC)CC(=O)N(C)[C@@H](CC(C)C)C(=O)N[C@@H]([C@@H](C)CC)C(=O)N(C)CC(=O)N(C)[C@H]3C/C=C\CCN(C3=O)[C@@H](Cc3ccc(C(F)(F)F)cc3)C(=O)N(C)CC(=O)N[C@@H](CCc3ccc(Cl)c(Cl)c3)C(=O)N2C1 [PP2845]	A (a compound having 10 or more and less than 20 is denoted as A)	AA (a compound having 20 or more is denoted as AA)
CCO[C@@H]1C[C@H]2C(=O)NC3(CCC3)C(=O)N(C)[C@@H](C3CCCC3)C(=O)N(C)[C@H](C(=O)N(C)CC)CC(=O)N(C)[C@@H](CC(C)C)C(=O)N[C@@H]([C@@H](C)CC)C(=O)N(C)CC(=O)N(C)[C@H]3C/C=C\CCN(C3=O)[C@@H](Cc3ccc(C(F)(F)F)cc3)C(=O)N(C)CC(=O)N[C@@H](CCc3ccc(C(F)(F)F)c(OC)c3)C(=O)N2C1 [PP2846]	A (a compound having 10 or more and less than 20 is denoted as A)	AA (a compound having 20 or more is denoted as AA)
CCO[C@@H]1C[C@H]2C(=O)NC3(CCC3)C(=O)N(C)[C@@H](C3CCCC3)C(=O)N(C)[C@H](C(=O)N(C)CC)CC(=O)N(C)[C@@H](CC(C)C)C(=O)N[C@@H]([C@@H](C)CC)C(=O)N(C)CC(=O)N(C)[C@H]3C/C=C\CCN(C3=O)[C@@H](Cc3ccc(C(F)(F)F)cc3)C(=O)N(C)CC(=O)N[C@@H](CCc3ccc(C(F)(F)F)c(Cl)c3)C(=O)N2C1 [PP2847]	A (a compound having 10 or more and less than 20 is denoted as A)	A (a compound having 10 or more and less than 20 is denoted as A)
CCC[C@H]1C(=O)N[C@@H]([C@@H](C)CC)C(=O)N(C)CC(=O)N(C)[C@H]2C/C=C\CCN(C2=O)[C@@H](Cc2ccc(C(F)(F)F)cc2)C(=O)N(C)CC(=O)N[C@@H](CCc2ccc(CC)c(Cl)c2)C(=O)N2C[C@H](OCC)C[C@H]2C(=O)NC2(CC(C)(C)C2)C(=O)N(C)[C@@H](C2CCCC2)C(=O)N(C)[C@H](C(=O)N(C)C)CC(=O)N1C [PP2848]	A (a compound having 10 or more and less than 20 is denoted as A)	A (a compound having 10 or more and less than 20 is denoted as A)
CCC[C@H]1C(=O)N[C@@H]([C@@H](C)CC)C(=O)N(C)CC(=O)N(C)[C@H]2C/C=C\CCN(C2=O)[C@@H](Cc2ccc(C(F)(F)F)cc2)C(=O)N(C)CC(=O)N[C@@H](CCc2cc(F)c3c(c2)CCC3)C(=O)N2C[C@H](OCC)C[C@H]2C(=O)NC2(CC(C)(C)C2)C(=O)N(C)[C@@H](C2CCCC2)C(=O)N(C)[C@H](C(=O)N(C)C)CC(=O)N1C [PP2849]	A (a compound having 10 or more and less than 20 is denoted as A)	A (a compound having 10 or more and less than 20 is denoted as A)
CCC[C@H]1C(=O)N[C@@H]([C@@H](C)CC)C(=O)N(C2CC2)CC(=O)N(C)[C@H]2C/C=C\CCN(C2=O)[C@@H](Cc2ccc(C)cc2)C(=O)N(C)CC(=O)N[C@@H](CCc2ccc(C(F)(F)F)c(CC)c2)C(=O)N2C[C@H](OCC)C[C@H]2C(=O)NC2(CC(C)(C)C2)C(=O)N(C)[C@@H](C2CCCC2)C(=O)N(C)[C@H](C(=O)N(C)C)CC(=O)N1C [PP2870]	A (a compound having 10 or more and less than 20 is denoted as A)	A (a compound having 10 or more and less than 20 is denoted as A)
CCC[C@H]1C(=O)N[C@@H]([C@@H](C)CC)C(=O)N(C)CC(=O)N(C)[C@H]2C/C=C\CCN(C2=O)[C@@H](Cc2ccc(C(F)(F)F)cc2)C(=O)N(C)CC(=O)N[C@@H](CCc2cc(Cl)c3sccc3c2)C(=O)N2C[C@H](OCC)C[C@H]2C(=O)NC2(CC(C)(C)C2)C(=O)N(C)[C@@H](C(CC)CC)C(=O)N(C)[C@H](C(=O)N(C)C)CC(=O)N1C [PP2888]	A (a compound having 10 or more and less than 20 is denoted as A)	AA (a compound having 20 or more is denoted as AA)
CCC[C@H]1C(=O)N[C@@H]([C@@H](C)CC)C(=O)N(C)CC(=O)N(C)[C@H]2C/C=C\CCN(C2=O)[C@@H](Cc2ccc(C(F)(F)F)cc2)C(=O)N(C)CC(=O)N[C@@H](CCc2ccc3sc(C)c(C)c3c2)C(=O)N2C[C@H](OCC)C[C@H]2C(=O)NC2(CC(C)(C)C2)C(=O)N(C)[C@@H](C2CCCC2)C(=O)N(C)[C@H](C(=O)N(C)C)CC(=O)N1C [PP2889]	A (a compound having 10 or more and less than 20 is denoted as A)	A (a compound having 10 or more and less than 20 is denoted as A)
CCC[C@H]1C(=O)N[C@@H]([C@@H](C)CC)C(=O)N(C)CC(=O)N(C)[C@H]2C/C=C\CCN(C2=O)[C@@H](Cc2ccc(C)cc2)C(=O)N(C)CC(=O)N[C@@H](CCc2cc(Cl)c3sccc3c2)C(=O)N2C[C@H](OCC)C[C@H]2C(=O)NC2(CC(C)(C)C2)C(=O)N(C)[C@@H](C(CC)CC)C(=O)N(C)[C@H](C(=O)N(C)C)CC(=O)N1C [PP2890]	A (a compound having 10 or more and less than 20 is denoted as A)	AA (a compound having 20 or more is denoted as AA)
CCC[C@H]1C(=O)N[C@@H]([C@@H](C)CC)C(=O)N(C)CC(=O)N(C)[C@H]2C/C=C\CCN(C2=O)[C@@H](Cc2ccc(C)cc2)C(=O)N(C)CC(=O)N[C@@H](CCc2ccc3sc(C)c(C)c3c2)C(=O)N2C[C@H](OCC)C[C@H]2C(=O)NC2(CC(C)(C)C2)C(=O)N(C)[C@@H](C2CCCC2)C(=O)N(C)[C@H](C(=O)N(C)C)CC(=O)N1C [PP2891]	B (a compound having 3 or more and less than 10 is denoted as B)	A (a compound having 10 or more and less than 20 is denoted as A)
CCC[C@H]1C(=O)N[C@@H]([C@@H](C)CC)C(=O)N(C)CC(=O)N(C)[C@H]2C/C=C\CCN(C2=O)[C@@H](Cc2ccc(C(F)(F)F)cc2)C(=O)N(C)CC(=O)N[C@@H](CCc2ccc3sc(F)c(C)c3c2)C(=O)N2C[C@H](OCC)C[C@H]2C(=O)NC2(CC(C)(C)C2)C(=O)N(C)[C@@H](C(CC)CC)C(=O)N(C)[C@H](C(=O)N(C)C)CC(=O)N1C [PP2892]	A (a compound having 10 or more and less than 20 is denoted as A)	A (a compound having 10 or more and less than 20 is denoted as A)
